# Measurements reported in ChEMBL document CHEMBL1131014, “Three-dimensional quantitative similarity-activity relationships (3D QSiAR) from SEAL similarity matrices” (J Med Chem, 1998).
# Biological target: T1, Corticosteroid-binding globulin (Sus scrofa) (UniProt Q9GK37)
# T1 sequence (whole entry): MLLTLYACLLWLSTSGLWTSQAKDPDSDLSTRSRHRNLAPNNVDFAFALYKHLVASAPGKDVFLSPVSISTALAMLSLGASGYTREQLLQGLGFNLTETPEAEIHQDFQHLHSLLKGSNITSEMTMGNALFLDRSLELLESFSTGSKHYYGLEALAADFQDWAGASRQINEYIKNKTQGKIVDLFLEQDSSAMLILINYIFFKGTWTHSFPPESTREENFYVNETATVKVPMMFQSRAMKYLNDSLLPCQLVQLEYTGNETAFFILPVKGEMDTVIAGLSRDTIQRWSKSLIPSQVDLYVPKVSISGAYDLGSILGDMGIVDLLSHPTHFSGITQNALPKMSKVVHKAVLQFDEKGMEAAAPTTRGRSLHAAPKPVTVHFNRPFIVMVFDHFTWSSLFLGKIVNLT
# Description: Compound was tested for Corticosteroid binding globulin affinity
row,SMILES,Log K
1,C[C@]12CC[C@@H]3c4ccc(O)cc4CC[C@H]3[C@@H]1CC[C@@H]2O,5

# Biological target: T2, Corticosteroid-binding globulin (Homo sapiens) (UniProt P08185)
# T2 sequence (whole entry): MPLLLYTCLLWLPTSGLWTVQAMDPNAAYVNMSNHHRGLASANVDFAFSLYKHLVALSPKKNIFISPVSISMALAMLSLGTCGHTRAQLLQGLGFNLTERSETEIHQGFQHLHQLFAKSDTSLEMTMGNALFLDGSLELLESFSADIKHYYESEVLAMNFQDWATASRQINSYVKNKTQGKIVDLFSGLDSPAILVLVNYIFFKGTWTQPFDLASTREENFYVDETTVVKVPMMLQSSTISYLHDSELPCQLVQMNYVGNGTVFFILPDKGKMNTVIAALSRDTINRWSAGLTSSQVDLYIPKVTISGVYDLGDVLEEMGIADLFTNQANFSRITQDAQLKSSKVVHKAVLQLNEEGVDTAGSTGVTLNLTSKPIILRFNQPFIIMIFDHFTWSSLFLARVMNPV
# Description: Binding affinity to corticosteroid binding globulin
row,SMILES,Log K
1,C[C@]12CC[C@H](O)C[C@@H]1CC[C@@H]1[C@@H]2CC[C@]2(C)[C@@H](O)CC[C@@H]12,5
2,CC(=O)[C@H]1CC[C@H]2[C@@H]3CCC4=CC(=O)CC[C@]4(C)[C@H]3CC[C@]12C,7.38
3,C[C@]12C[C@@H](O)[C@H]3[C@@H](CCC4=CC(=O)CC[C@@]43C)[C@@H]1CC[C@@H]2C(=O)CO,7.2
4,CC(=O)[C@@]1(O)CC[C@H]2[C@@H]3CCC4=CC(=O)CC[C@]4(C)[C@H]3CC[C@@]21C,7.74
5,C[C@]12CC[C@@H]3c4ccc(O)cc4CC[C@H]3[C@@H]1C[C@@H](O)[C@@H]2O,5
6,CC(=O)[C@H]1[C@H](C)C[C@H]2[C@@H]3CCC4=CC(=O)CC[C@]4(C)[C@H]3CC[C@@]21C,7.12
7,"C[C@]12CCC(=O)C=C1CCC1[C@@H]2C(=O)C[C@@]2(C)[C@H]1CC[C@]2(O)C(=O)CO (single isomer, unassigned)",6.89
8,CC(=O)[C@H]1CC[C@H]2[C@@H]3CC=C4C[C@@H](O)CC[C@]4(C)[C@H]3CC[C@]12C,5.25
9,C[C@]12CC[C@H]3[C@@H](CCC4=CC(=O)CC[C@@]43C)[C@@H]1CC[C@@H]2C(=O)CO,7.65
10,C[C@]12CC[C@H]3[C@@H](CCC4=CC(=O)CC[C@@H]43)[C@@H]1CC[C@@H]2O,6.14
11,C[C@]12CCC(=O)C=C1CC[C@@H]1[C@@H]2CC[C@]2(C)C(=O)CC[C@@H]12,5.76
12,C[C@]12CCC(=O)C=C1CC[C@@H]1[C@@H]2[C@@H](O)C[C@]2(C=O)[C@@H](C(=O)CO)CC[C@@H]12,6.28
13,C[C@]12C[C@H](O)[C@H]3[C@@H](CCC4=CC(=O)CC[C@@]43C)[C@@H]1CC[C@@H]2C(=O)CO,7.88
14,"C[C@]12CCC(=O)C=C1CCC1[C@@H]2[C@@H](O)C[C@@]2(C)[C@H]1CC[C@]2(O)C(=O)CO (single isomer, unassigned)",7.88
15,C[C@@H]1C[C@@]2(C)C(=CC1=O)CC[C@H]1[C@@H]3CC[C@](O)(C(=O)CO)[C@@]3(C)C[C@H](O)[C@@]12F,5.8
16,CC(=O)[C@H]1CC[C@H]2[C@@H]3CCC4=CC(=O)CC[C@]4(C)[C@H]3C(=O)C[C@]12C,6.78
17,C[C@]12CC[C@H](O)CC1=CC[C@@H]1[C@@H]2CC[C@]2(C)C(=O)CC[C@@H]12,5
18,C[C@]12CC[C@H]3[C@@H](CCC4=CC(=O)CC[C@@]43C)[C@@H]1CC[C@@H]2O,6.72
19,CC(=O)[C@@]1(O)CC[C@H]2[C@@H]3CC[C@@H]4C[C@H](O)CC[C@]4(C)[C@H]3CC[C@@]21C,5
20,"CC(=O)OCC(=O)[C@@]1(O)CC[C@H]2C3CCC4=CC(=O)CC[C@]4(C)[C@H]3[C@@H](O)C[C@@]21C (single isomer, unassigned)",7.55
21,C[C@]12CCC(=O)C=C1CC[C@@H]1[C@@H]2CC[C@@]2(C)[C@H]1CC[C@]2(O)C(=O)CO,7.88
22,CC(=O)[C@H]1CC[C@H]2[C@@H]3CCC4=CC(=O)CCC4[C@H]3CC[C@]12C (stereo not given in full),6.82
23,CC(=O)[C@@]1(O)[C@H](O)C[C@H]2[C@@H]3CCC4=CC(=O)CC[C@]4(C)[C@H]3CC[C@@]21C,6.25
24,"C[C@]12C=CC(=O)C=C1CCC1[C@@H]2[C@@H](O)C[C@@]2(C)[C@H]1CC[C@]2(O)C(=O)CO (single isomer, unassigned)",7.51
